From patent US7138486B2, “Insulinotropic hormone derivatives and uses thereof” (The General Hospital Corporation, priority 1986, dated 2006)
Blank lines part the entries; values can stand above or below the molecule they belong to. Where no end group is shown, it is not given here.

Legend:
[1] = system: RIN 1046-38 cells; assay: cAMP formation in insulinoma cell line; assay type: cell-based, rat; conditions: for Effect on cAMP levels: 0.5 μM; for Effects on the formation of cAMP: at 5 nM and 50 pM
Procedure: Cells were grown as described in Example 1, in […] culture dishes. Varying amounts of glucagon-like peptides were added to culture wells in triplicate. […] Twenty microliters from each culture well was assayed.
Insulinotropic activity was monitored as described by Mojsov, S., et al., (J. Clin. Invest. 79:616–619 (1987)) and Drucker, D. J., et al., (Proc. Natl Acad. Sci. 84:3434–3438 (1987)), both of which references are incorporated by reference herein. […]

[2] = system: rat pancreas; assay: Pancreatic perfusion assay of insulinotropic activity (effluent insulin); assay type: in vivo; conditions: for Insulinotropic activity (perfusate insulin): Table 6; for Mean perfusate insulin concentration: 10^−9 M for 5 minutes; for Insulinotropic activity: 10^−11 M, five minute perfusions, FIG. 4
Procedure: The in situ isolated perfused rat pancreas preparation was a modification of the method of Penhos, J. C., el al. (Diabetes 18:733–738 (1969)). In accordance with such a method, fasted rats (preferably male Charles River strain albino rats), weighing 350–600 g, are anesthetized with an intraperitoneal injection of Amytal Sodium (Eli Lilly and Co., 160 ng/kg). Renal, adrenal, gastric, and lower colonic blood vessels are ligated. The entire intestine is resected except for about four cm of duodenum and the descending colon and rectum. […] The perfusate is preferably a modified Krebs-Ringer bicarbonate buffer with 4% dextran T70 and 0.2% bovine serum albumin (fraction V), and is preferably bubbled with 95% O2 and 5% CO2. A nonpulsatile flow, four-channel roller-bearing pump (Buchler polystatic, Buchler Instruments Division, Nuclear-Chicago Corp.) is preferably used, and a switch from one perfusate source to another is preferably accomplished by switching a three-way stopcock.
Isolated rat pancreas was prepared according to the method of Weir, G. C., et al., (J. Clin. Invest. 54:1403–1412 (1974)), and Penkos, J. C., et al. (Diabetes 18:733–738 (1969)). The perfusate contained bicarbonate buffer (pH 7.4) and 120 mg/dl glucose, 4% dextran T-70, and 0.2% bovine serum albumin, and was equilibrated with 95% oxygen and 5% carbon dioxide. The first 20 minutes of each perfusion was an equilibrium period. After this initial period, aliquots of perfusate were removed every 2–4 min for additional 20 min, thus allowing the system to equilibrate for a total of 40 min. The perfusion, including any added insulinotropic peptide, was for 6 min and samples were collected at 1-min intervals. When more than one perfusion was to be performed, the peptide perfusions were followed by equilibration periods of 20 min, during which four samples 5 min apart were collected. […] Again, samples 1 min apart were collected. The entire perfusion time was between 70 and 85 min.
In each aliquot of perfusate obtained, insulin was determined by radioimmunoassay. […] At one minute intervals, pancreas effluent insulin levels in picograms/ml were determined by radioimmunoassay (as described above).

[3] = system: RIN 1046-38 cells; assay: Levels of insulin, actin and angiotensinogen mRNAs by Northern blot densitometry; assay type: cell-based, rat
Procedure: Rat insulinoma cells of cell line RIN-38 were derived from a continuous islet cell line, RIN-r, which was established from a transplantable rat islet cell tumor (Gazdar, A. F., et al., Proc. Natl. Acad. Sci., USA 77:3519–3523 (1980)). The cells were maintained in DMEM (Gibco) at a glucose concentration of 4,500 mg/L and supplemented with 10% heat-inactivated fetal bovine serum (Gibco), 100 U/ml of penicillin and 100 μg/ml of streptomycin. Incubations were carried out at 37° C. in 95% air:5% CO2. Cells grown in the above manner were washed and resuspended in DMEM (Gibco) containing 0.1% bovine serum albumin and 25 mM glucose. […] Incubations were for six hours.
Messenger RNAs specific for insulin, actin, or angiotensinogen were identified by Northern hybridization as follows: cellular RNA was extracted from solid tumors and cells by homogenization in guanidine thiocyanate and sedimentation through a cesium chloride cushion. Poly A^+ RNA was isolated by oligo dT cellulose chromatography (Aviv, H., et al., Proc. Natl. Acad. Sci., USA 69:1408–1412 (1972)). Twenty micrograms of total RNA from each sample were fractionated by size on a 1.4% agarose gel after denaturation in glyoxal, followed by electrotransfer to a nylon membrane (Nytran; Schleicher and Schuell). Blotted membranes were baked for two hours at 80° C. under vacuum, prehybridized in 1M NaCl/1% SDS/10% Dextran sulfate at 50° C. overnight and hybridized at the same temperature for 24 h after addition of the labeled probes (3–5×10^5 cpm/ml); they were then washed at 55° C. twice in 1×SCC (0.15M NaCl/0.015 M Na citrate)/1% SDS), and exposed to X-ray film for varying times at −70° C. with an intensifying screen. The relative amounts of the specific mRNA were determined by microdensitometry.

[4] = target: receptor involved in the recognition of glucagon; assay: cell-based or functional assay
[5] = system: βTC-1 cells; assay: Proinsulin biosynthesis ([3H]leucine labelling); assay type: cell-based, mouse; conditions: 6 hours labeling
Procedure: βTC-1 cells (Efrat et al., Proc. Natl. Acad. Sci. (USA) 85:9037–9041 (1988)) were grown in a humidified atmosphere at 37° C. in RPMI 1640 medium supplemented with 10% (vol/vol) fetal bovine serum, 5% (vol/vol) horse serum, 100 U/ml penicillin and 100 μg/ml streptomycin. Media were changed after three days and cells were split 1:3 after six days.
βTC-1 cells were plated into 35 mm plates and grown for two days to reach 80–90% confluency. During a 6 hour labeling period cells were incubated in 1 ml RPMI 1640 supplemented with 0.1% human serum albumin, 0.1% bacitracin and 50 μCi[^3H]leucine. Forskolin, IBMX, 8-Bromo-cAMP and GLP-1(7-37) were added from stock solutions as described (see “cell transfection”). Cells were harvested in PBS and lysed by three freeze-thaw cycles. Immunoreactive proinsulin was precipitated with an antiserum raised in rabbits against pork insulin that was coupled to a 10% suspension of bacterial lysates (Saureus) containing protein A. Radioactivity contained in the resulting pellets was counted using a lliquid scintillation counter. Incorporation of [^3H]leucine into total protein was measured in trichloroacetic acid precipitates of the cells. None of the agents tested had any effects on [^3H]leucine incorporation into TCA precipitable proteins. Data are expressed as fold-induction of proinsulin biosynthesis above those in the control experiments (no treatment).

[6] = system: βTC-1 cells; assay: Cellular insulin content by radioimmunoassay; assay type: cell-based, mouse; conditions: 24 hours
Procedure: Two days before the experiment commenced, cells were plated into 35 mm plates. Media were changed to RPMI 1640 supplemented with 0.1% human serum albumin and 0.1% bacitracin. […] After incubation for 24 hours under these conditions, cells were washed three times with PBS and harvested in 1.5 ml buffer containing 150 mM NaCl, 1 mM EDTA and 40 mM Tris/Cl pH 7.4 and resuspended in 200 μl PBS. Fifty μl of this cell suspension were resuspended in 1 ml 1 M acetic acid and extracted for 16 hours at 4° C. Aliquots (2 and 20 μl) were lyophilized and reconstituted in insulin-RIA buffer. The cell number of each plate was controlled by determination of total protein in the initial cell lysate. […] Insulin was measured with a radioimmunoassay system using an antiserum raised in rabbits against pork insulin and pork insulin as the standard. […] Data are presented as fold-increase of insulin content per well above the control experiments (no treatment).

[7] = system: rat insulin I gene promoter in βTC-1 cells; assay: CAT activity in cells transiently transfected with −410 Ins-CAT plasmid; assay type: cell-based, mouse; conditions: 24 hours
Procedure: Cells of two 80–90% confluent 150 mm culture plates were trypsinized and transfected in solution in one tube with 15 μg of indicator plasmid using the DEAE-dextran method. The plasmid contained 410 bp of the rat insulin I gene promoter fused to the transcriptional reporter gene encoding the bacterial enzyme chloramphenicol-acetyltransferase (CAT). […] Subsequently cells were plated into 18 wells of six well plates. […] Thereby, differences in transfection deficiencies reflected in CAT activities were normalized against protein concentrations as well as the respective control experiments. After transfection cells were incubated in RPMI 1640 supplemented with 0.1% human serum albumin and 0.1% bacitracin. […] After extraction with ethylacetate (1 ml) acetylated and non-acetylated ^14C-chloramphenicol were separated by thin-layer chromatography (chloroform:methanol 9:1), identified by autoradiography and the respective spots were scraped from the plates and radioactivity was counted in a scintillation counter.

[8] = target: cellular receptors; assay: cell-based or functional assay

Molecule: GLP-1(7-36)-NH2: GLP-1(7-36) with the C-terminal residue, arginine, in amidated form as arginineamide
cAMP formation ([1]; IBMX 100 uM, peptide 10^−7 M): 358 ± 32 fmoles/10 ul of cell extract | cAMP formation ([1]; IBMX 100 uM, peptide 10^−9 M): 225 ± 16 fmoles/10 ul of cell extract | cAMP formation ([1]; IBMX 100 uM, peptide 10^−11 M, 10 minutes, control 161 ± 10): 141 ± 5 fmoles/10 ul of cell extract | cAMP formation ([1]; IBMX 500 uM, peptide 10^−7 M): 1676 ± 113 fmoles/10 ul of cell extract | cAMP formation ([1]; IBMX 500 uM, peptide 10^−9 M): 1199 ± 41 fmoles/10 ul of cell extract | cAMP formation ([1]; IBMX 500 uM, peptide 10^−11 M, control 540 ± 22): 446 ± 38 fmoles/10 ul of cell extract | Insulinotropic activity (perfusate insulin) ([2]; time +1 minute): 4550 ± 703 | Insulinotropic activity (perfusate insulin) ([2]; time +2 minutes): 3330 ± 637 | Insulinotropic activity (perfusate insulin) ([2]; time +3 minutes): 2500 ± 564 | Insulinotropic activity (perfusate insulin) ([2]; time −1 minute (before peptide), 5 minute perfusion): 985 ± 275 | Potency as secretagogue, 7-37 form versus 7-36-amide ([2]; perfused rat pancreas): equally potent secretagogues

Molecule: glucagon
Effect on cAMP levels [1]: increased cAMP levels | cAMP ([1]; Exp. 1, 5 × 10^−9 M): 20.1 ± 2.5 (a) fmol | cAMP ([1]; Exp. 1, 5 × 10^−10 M): 16.5 ± 2.0 (NS) fmol | cAMP ([1]; Exp. 1, 5 × 10^−11 M): 13.2 ± 1.0 (NS) fmol | cAMP ([1]; Exp. 1, 5 × 10^−12 M, per 1/50th of cell extract per plate, control 15.4 ± 0.7, mean ± SEM): 18.7 ± 2.2 (NS) fmol | cAMP ([1]; Exp. 2, 5 × 10^−7 M): 93.1 ± 2.9 (c) fmol | cAMP ([1]; Exp. 2, 5 × 10^−8 M, control 43.6 ± 4.1): 44.8 ± 1.6 (NS) fmol | cAMP formation ([1]; Table 8, 10^−6 M): 92 ± 9 f-mole/5 ul of cell extract/15 min exposure to peptide | Effects on the formation of cAMP [1]: negligible | Mean perfusate insulin concentration ([2]; glucose 6.6 mM, absence of GLP-1 (8-37)): 4.98 ± 0.96 ng/mL | Mean perfusate insulin concentration ([2]; glucose 6.6 mM, presence of 10^−8 M GLP-1 (8-37), N=4): 5.26 ± 0.89 ng/mL | Peak insulin release ([2]; 10^−9 M, glucose 6.6 mM): 4.5 ± 0.5 ng/mL | Insulin release ([2]; 10^−11M): no release | Concentration at which an insulinotropic effect is still mediated (as low as) ([2]; pancreatic B cell secretagogue): 10^−9 M | Effects on insulin mRNA levels [3]: no effects

mean perfusate insulin concentration, perfused rat pancreas, glucagon alone at 10^-9 M [4]: 4.98 ng/mL
Molecule: glucagon (from UniProt P01275 53-81) (peptide)

Molecule: His-Ala-Glu-Gly-Thr-Phe-Thr-Ser-Asp-Val-Ser-Ser-Tyr-Leu-Glu-Gly-Gln-Ala-Ala-Lys-Glu-Phe-Ile-Ala-Trp-Leu-Val-Lys-Gly-Arg (HAEGTFTSDVSSYLEGQAAKEFIAWLVKGR; printed: His-Ala-Glu-Gly-Thr-Phe-Thr-Ser-Asp-Val-Ser-Ser-Tyr-Leu-Glu-Gly-Gln-Ala-Ala-Lys-Glu-Phe-Ile-Ala-Trp-Leu-Val-Lys-Gly-Arg) [GLP-1(7-36), GLP-1 polypeptide having all amino acids from number 7 through number 36]
Insulinotropic activity compared with GLP-1(7-37) ([2]; 10^−11M): equiavlent to GLP-1(7-37)

Molecule: GLP-1(7-35): derivative of GLP-1(1-37), amino acids 7-35 (HAEGTFTSDVSSYLEGQAAKEFIAWLVKG; Glucagon-like peptide 1; UniProt P01275 98-126, looked up, fragment)
Insulinotropic activity [2]: detectable insulinotropic activity

Molecule: GLP-1(7-34): derivative of GLP-1(1-37), amino acids 7-34 (HAEGTFTSDVSSYLEGQAAKEFIAWLVK; Glucagon-like peptide 1; UniProt P01275 98-125, looked up, fragment)
Insulinotropic activity [2]: detectable insulinotropic activity

Molecule: CC(C)Cn1c(=O)n(C)c(=O)c2[nH]cnc21 [IBMX]
Increase of proinsulin biosynthesis ([5]; 0.5 mM): 1.53±0.06 fold | Increase of total cellular insulin content ([6]; 0.5 mM): 1.30±0.12 fold | Increase of CAT activity ([7]; 0.5 mM): 2.6±0.16 fold

Molecule: des-7 histidine GLP-1(7-37) (AEGTFTSDVSSYLEGQAAKEFIAWLVKGRG) [GLP-1 (8-37)]
cAMP formation ([1]; Table 8, 10^−5 M): 77 ± 11 f-mole/5 ul of cell extract/15 min exposure to peptide | cAMP formation ([1]; Table 8, 10^−6 M): 31 ± 3 f-mole/5 ul of cell extract/15 min exposure to peptide | cAMP formation ([1]; Table 8, 10^−7 M): 24 ± 2 f-mole/5 ul of cell extract/15 min exposure to peptide | cAMP formation ([1]; Table 8, 10^−8 M, no peptide 27 ± 2, mean ± S.E.M.): 28 ± 0.8 f-mole/5 ul of cell extract/15 min exposure to peptide | Insulinotropic activity compared with glucagon ([1]; cAMP formation): comparable to that of glucagon | Effect on insulin secretion ([2]; perfusate glucose 6.6 mM, 10^−7 M): weak insulinotropic activity | Effect on insulin secretion ([2]; perfusate glucose 6.6 mM, 10^−11, 10^−9, or 10^−8 M): no detectable effect | Effect on insulin secretion ([2]; perfusate glucose 16.7 mM, 10^−9 M): no effect

Molecule: C=C[C@@]1(C)CC(=O)[C@]2(O)[C@@]3(C)[C@@H](O)CCC(C)(C)[C@@H]3[C@H](O)[C@H](OC(C)=O)[C@@]2(C)O1 [Forskolin, forskolin]
Increase of proinsulin biosynthesis ([5]; 10 μM): 1.53±0.06 fold | Increase of total cellular insulin content ([6]; 10 μM): 1.49±0.18 fold | Increase of CAT activity ([7]; 10 μM): 3.3±0.57 fold

Molecule: GLP-1-(1-36)-NH2: GLP-1(1-36 des-gly-arg amide); Peninsula Laboratories (HDEFERHAEGTFTSDVSSYLEGQAAKEFIAWLVKGR-NH2; UniProt P01275 92-127, looked up, fragment)
Effect on cAMP levels [1]: increased cAMP levels | cAMP ([1]; Exp. 4, 5 × 10^−7 M, control 41.3 ± 7.1): 70.2 ± 2.8 (b) fmol | Effects on the formation of cAMP [1]: negligible | Actin mRNA level ([3]; Experiment 1, peptide 5 × 10^−7 M, control 0.68 ± 0.03): 0.87 ± 0.19 Arbitrary densitometric units | Insulin mRNA level ([3]; Experiment 1, peptide 5 × 10^−7 M, control 1.28 ± 0.18, mean ± SEM): 2.78 ± 0.51^4 Arbitrary densitometric units | Angiotensinogen mRNA level ([3]; Experiment 1, peptide 5 × 10^−7 M, control 2.67 ± 0.31): 2.56 ± 0.22 Arbitrary densitometric units

Molecule: GLP-2: glucagon-like peptide 2, 34 amino acid residues long
Stimulation of cAMP levels ([1]; even at 10^−11 M): neither GLP-1(1-37) nor GLP-2 (GLP-2) exhibited such activity | Effects on insulin mRNA levels [3]: no effects

cAMP level in RIN-38 cells, 10 min, peptide at 10^-6 M (no peptide: 91) [8]: 170 | cAMP level in RIN-38 cells, 10 min, peptide at 10^-7 M (no peptide: 91) [8]: 120 | cAMP level in RIN-38 cells, 10 min, peptide at 10^-8 M (no peptide: 91) [8]: 160 | cAMP level in RIN-38 cells, 10 min, peptide at 10^-9 M (no peptide: 91) [8]: 100 | cAMP level in RIN-38 cells, 10 min, peptide at 10^-10 M (no peptide: 91) [8]: 90 | cAMP level in RIN-38 cells, 10 min, peptide at 10^-11 M (no peptide: 91) [8]: 90
Molecule: HDEFERHAEGTFTSDVSSYLEGQAAKEFIAWLVKGRG [glucagon-like peptide-1 (1-37)]

cAMP level in RIN-38 cells, 10 min, peptide at 10^-6 M (no peptide: 140) [8]: 400 | cAMP level in RIN-38 cells, 10 min, peptide at 10^-7 M (no peptide: 140) [8]: 370 | cAMP level in RIN-38 cells, 10 min, peptide at 10^-8 M (no peptide: 140) [8]: 494 | cAMP level in RIN-38 cells, 10 min, peptide at 10^-9 M (no peptide: 140) [8]: 515 | cAMP level in RIN-38 cells, 10 min, peptide at 10^-10 M (no peptide: 140) [8]: 253 | cAMP level in RIN-38 cells, 10 min, peptide at 10^-11 M (no peptide: 140) [8]: 533
Molecule: HAEGTFTSDVSSYLEGQAAKEFIAWLVKGRG [glucagon-like peptide-1 (7-37)]
